According to US8962641B2, “Pyrimidine-substituted pyrrolidine derivatives, pharmaceutical compositions and uses thereof” (Boehringer Ingelheim International GmbH, priority 2013, dated 2015):
Where two headings read alike, the source gives them in different places.

Molecular target: human ACC2 (Homo sapiens (Human), UniProt O00763)
Assay: ACC2 assay (spectrophotometric 384 well assay, NADH-linked kinetic method)
Type: biochemical
Protocol: Spectrophotometric 384 Well Assay
Malonyl CoA formation by acetyl CoA carboxylases is stoichometrically linked to the consumption of ATP. ACC2 activity is measured in a NADH-linked kinetic method measuring ADP generated during the ACC reaction using a coupled lactate dehydrogenase/pyruvate kinase reaction.
The protein is then expressed in insect cells using a baculoviral expression system. Protein purification is performed by anion exchange.
All compounds are dissolved in dimethyl sulfoxide (DMSO) to a concentration of 10 mM.
The enzymatic reaction is then started by addition of a mixture of NADH, acetyl Coenzyme A (both 200 μM f.c.) and ATP (500 uM f.c.). The decrease of the optical density (slope S) is then determined at 25° C. at a wavelength of 340 nm over 15 minutes in a spectrophotometric reader.
Each assay microtiter plate contains wells with vehicle instead of compound as controls for the non-inhibited enzyme (100% CTL; ‘HIGH’) and wells without acetyl-CoA as controls for non-specific NADH degradation (0% CTL; ‘LOW’).

[1] = hACC2 construct lacking 128 N-terminal amino acids, coupled lactate dehydrogenase/pyruvate kinase reaction, 340 nm, 25° C.

Sequence of human ACC2 (O00763 129-2458): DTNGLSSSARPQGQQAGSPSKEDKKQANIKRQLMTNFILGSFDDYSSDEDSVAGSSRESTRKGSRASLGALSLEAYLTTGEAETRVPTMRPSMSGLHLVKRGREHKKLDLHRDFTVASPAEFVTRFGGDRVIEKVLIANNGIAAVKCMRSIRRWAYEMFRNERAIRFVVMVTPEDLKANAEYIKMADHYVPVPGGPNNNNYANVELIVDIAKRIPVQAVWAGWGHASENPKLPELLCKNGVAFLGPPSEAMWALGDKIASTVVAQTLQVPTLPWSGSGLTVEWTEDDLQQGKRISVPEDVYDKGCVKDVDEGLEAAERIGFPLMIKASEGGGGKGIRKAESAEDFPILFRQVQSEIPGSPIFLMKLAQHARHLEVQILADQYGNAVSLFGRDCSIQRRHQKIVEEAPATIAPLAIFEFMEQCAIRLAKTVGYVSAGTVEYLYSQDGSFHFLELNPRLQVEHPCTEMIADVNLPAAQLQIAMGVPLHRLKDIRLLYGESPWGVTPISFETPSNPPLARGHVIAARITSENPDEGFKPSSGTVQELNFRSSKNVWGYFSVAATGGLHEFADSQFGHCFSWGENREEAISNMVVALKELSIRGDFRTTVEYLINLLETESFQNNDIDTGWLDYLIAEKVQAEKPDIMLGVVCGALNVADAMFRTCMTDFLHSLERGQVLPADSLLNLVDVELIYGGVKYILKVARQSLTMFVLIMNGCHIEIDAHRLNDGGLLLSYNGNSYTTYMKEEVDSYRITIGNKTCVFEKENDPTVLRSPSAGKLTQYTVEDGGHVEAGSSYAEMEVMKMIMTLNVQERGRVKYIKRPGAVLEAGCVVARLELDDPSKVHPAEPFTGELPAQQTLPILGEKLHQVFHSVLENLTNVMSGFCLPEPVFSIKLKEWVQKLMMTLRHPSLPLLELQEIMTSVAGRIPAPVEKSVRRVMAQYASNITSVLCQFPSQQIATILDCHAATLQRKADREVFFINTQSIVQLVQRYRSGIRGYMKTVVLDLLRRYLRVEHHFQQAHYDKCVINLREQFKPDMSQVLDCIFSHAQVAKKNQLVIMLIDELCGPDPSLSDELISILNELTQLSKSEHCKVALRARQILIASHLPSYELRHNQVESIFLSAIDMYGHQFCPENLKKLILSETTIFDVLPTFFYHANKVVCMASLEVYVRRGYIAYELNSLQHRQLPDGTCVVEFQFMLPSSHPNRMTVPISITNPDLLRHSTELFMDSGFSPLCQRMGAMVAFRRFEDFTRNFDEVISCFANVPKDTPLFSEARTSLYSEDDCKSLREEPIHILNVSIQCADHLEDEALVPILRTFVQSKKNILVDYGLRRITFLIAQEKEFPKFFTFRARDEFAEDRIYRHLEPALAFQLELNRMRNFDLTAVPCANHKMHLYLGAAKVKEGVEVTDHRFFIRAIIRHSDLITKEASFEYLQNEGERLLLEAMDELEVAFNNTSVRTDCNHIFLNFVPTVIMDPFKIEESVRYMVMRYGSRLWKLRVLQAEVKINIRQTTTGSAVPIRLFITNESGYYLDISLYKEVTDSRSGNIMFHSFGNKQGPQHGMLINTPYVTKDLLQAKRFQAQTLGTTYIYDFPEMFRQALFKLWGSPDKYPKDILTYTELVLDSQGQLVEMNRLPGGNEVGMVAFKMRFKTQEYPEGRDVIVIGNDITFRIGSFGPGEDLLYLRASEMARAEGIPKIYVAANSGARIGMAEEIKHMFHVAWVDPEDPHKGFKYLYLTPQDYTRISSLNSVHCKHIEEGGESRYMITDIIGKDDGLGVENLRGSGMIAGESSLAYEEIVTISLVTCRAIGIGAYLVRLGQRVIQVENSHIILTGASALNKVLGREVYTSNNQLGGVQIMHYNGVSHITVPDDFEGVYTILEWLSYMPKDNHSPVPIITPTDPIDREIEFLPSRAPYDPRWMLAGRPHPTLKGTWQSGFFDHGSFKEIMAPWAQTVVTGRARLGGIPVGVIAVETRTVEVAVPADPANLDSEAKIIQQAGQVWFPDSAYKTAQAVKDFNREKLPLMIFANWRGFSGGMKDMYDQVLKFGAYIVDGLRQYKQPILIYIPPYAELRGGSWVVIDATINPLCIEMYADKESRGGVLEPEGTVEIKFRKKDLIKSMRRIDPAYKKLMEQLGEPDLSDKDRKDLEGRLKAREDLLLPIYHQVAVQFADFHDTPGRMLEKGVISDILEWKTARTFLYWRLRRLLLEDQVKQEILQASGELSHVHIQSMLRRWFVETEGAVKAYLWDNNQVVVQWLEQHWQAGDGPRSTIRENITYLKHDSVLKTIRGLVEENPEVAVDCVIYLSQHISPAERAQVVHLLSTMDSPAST

| IC50 [1] | SMILES | IC50 |
| --- | --- | --- |
| 40 nM | C[C@H](NC(=O)N(C)C)c1ccc(OC2CCN(c3ccnc(N(C)CC(F)F)n3)C2)cc1 (some centres unmarked) [Example 3.1] |  |
| 227 nM | C[C@H](NC(=O)N(C)C)c1ccc(OC2CCN(c3ccnc(N4CCOCC4)n3)C2)cc1 (some centres unmarked) [Example 3.2] |  |
| 445 nM | CCNC(=O)N[C@@H](C)c1ccc(OC2CCN(c3ccnc(N4CCOCC4)n3)C2)cc1 (some centres unmarked) [Example 3.3] |  |
| 1040 nM | C[C@H](NC(=O)N1CCC1)c1ccc(OC2CCN(c3ccnc(N4CCOCC4)n3)C2)cc1 (some centres unmarked) [Example 3.4] |  |
| 299 nM | C[C@H](NC(=O)Nc1ccon1)c1ccc(OC2CCN(c3ccnc(N4CCOCC4)n3)C2)cc1 (some centres unmarked) [Example 3.5] |  |
| 605 nM | C[C@H](NC(=O)N1CCOCC1)c1ccc(OC2CCN(c3ccnc(N4CCOCC4)n3)C2)cc1 (some centres unmarked) [Example 3.6] |  |
| 374 nM | CCN(C)C(=O)N[C@@H](C)c1ccc(OC2CCN(c3ccnc(N4CCOCC4)n3)C2)cc1 (some centres unmarked) [Example 3.7] |  |
| 260 nM | CNC(=O)N[C@@H](C)c1ccc(OC2CCN(c3ccnc(N4CCOCC4)n3)C2)cc1 (some centres unmarked) [Example 3.8] |  |
| 117 nM | CCN(C)c1nccc(N2CCC(Oc3ccc([C@H](C)NC(=O)N(C)C)cc3)C2)n1 (some centres unmarked) [Example 3.9] |  |
| 45 nM | C[C@H](NC(=O)N(C)C)c1ccc(OC2CCN(c3ncnc(OCC4CC4)c3F)C2)cc1 (some centres unmarked) [Example 3.10] |  |
| 110 nM | CNC(=O)N[C@@H](C)c1ccc(OC2CCN(c3ncnc(OCC4CC4)c3F)C2)cc1 (some centres unmarked) [Example 3.11] |  |
| 203 nM | C[C@H](NC(=O)N1CCOCC1)c1ccc(OC2CCN(c3ncnc(OCC4CC4)c3F)C2)cc1 (some centres unmarked) [Example 3.12] |  |
| 50 nM | C[C@H](NC(=O)Nc1ccon1)c1ccc(OC2CCN(c3ncnc(OCC4CC4)c3F)C2)cc1 (some centres unmarked) [Example 3.13] |  |
| 120 nM | CCNC(=O)N[C@@H](C)c1ccc(OC2CCN(c3ncnc(OCC4CC4)c3F)C2)cc1 (some centres unmarked) [Example 3.14] |  |
| 278 nM | C[C@H](NC(=O)N(C)C)c1ccc(OC2CCN(c3ncnc(OCC(C)(C)O)c3F)C2)cc1 (some centres unmarked) [Example 3.15] |  |
| 104 nM | C[C@H](NC(=O)N(C)C)c1ccc(O[C@H]2CCN(c3nc(N4CCC5(CC5)C4)ncc3F)C2)cc1 [Example 3.16] |  |
| 242 nM | CCNC(=O)N[C@@H](C)c1ccc(O[C@@H]2CCN(c3nc(N4CCC5(CC5)C4)ncc3F)C2)cc1 [Example 3.17] |  |
| 113 nM | C[C@H](NC(=O)N(C)C)c1ccc(O[C@H]2CCN(c3nc(N4CCOCC4)ncc3F)C2)cc1 [Example 3.18] |  |

Continued, molecule first:

| SMILES | IC50 [1] | IC50 |
| --- | --- | --- |
| CC(=O)N[C@@H](C)c1ccc(O[C@@H]2CCN(c3cnc(NC4CCC4)nc3)C2)cc1 [Example 1.1, N—((S)-1-(4-((R)-1-(2-(cyclobutylamino)pyrimidin-5-yl)pyrrolidin-3-yloxy)phenyl)ethyl)acetamide] | 489 nM |  |
| CC(=O)N[C@@H](C)c1ccc(OC2CCN(c3cnc(OC4CCC4)nc3)C2)cc1 (some centres unmarked) [Example 1.2] | 565 nM |  |
| CC(=O)N[C@@H](C)c1ccc(OC2CCN(c3cnc(OCC4CC4)nc3)C2)cc1 (some centres unmarked) [Example 1.3] | 964 nM |  |
| CCC(=O)Nc1nc(C)c(C(=O)N[C@@H](C)c2ccc(O[C@@H]3CCN(c4ncc(OCC5CC5(F)F)cn4)C3)cc2)s1 (some centres unmarked) [Example 1.4] | 101 nM |  |
| C[C@H](NC(=O)C1CC1)c1ccc(O[C@@H]2CCN(c3ccnc(N(C)CC(F)F)n3)C2)cc1 [Example 2.1, N—((S)-1-(4-((R)-1-(2-((2,2-difluoroethyl)(methyl)amino)pyrimidin-4-yl)pyrrolidin-3-yloxy)phenyl)ethyl)cyclopropanecarboxamide] |  | 65 nM |
| C[C@H](NC(=O)C1CC1)c1ccc(OC2CCN(c3ccnc(N4CCOCC4)n3)C2)cc1 (some centres unmarked) [Example 2.2] | 359 nM |  |
| CC(=O)Nc1nc(C)c(C(=O)N[C@@H](C)c2ccc(OC3CCN(c4ccnc(N5CCOCC5)n4)C3)cc2)s1 (some centres unmarked) [Example 2.3] | 547 nM |  |
| Cc1nocc1C(=O)N[C@@H](C)c1ccc(OC2CCN(c3ccnc(N4CCOCC4)n3)C2)cc1 (some centres unmarked) [Example 2.4] | 208 nM |  |
| C[C@H](NC(=O)c1ccns1)c1ccc(OC2CCN(c3ccnc(N4CCOCC4)n3)C2)cc1 (some centres unmarked) [Example 2.5] | 535 nM |  |
| C[C@H](NC(=O)c1cnco1)c1ccc(OC2CCN(c3ccnc(N4CCOCC4)n3)C2)cc1 (some centres unmarked) [Example 2.6] | 320 nM |  |
| C[C@H](NC(=O)c1cn[nH]c1)c1ccc(OC2CCN(c3ccnc(N4CCOCC4)n3)C2)cc1 (some centres unmarked) [Example 2.7] | 455 nM |  |
| CCN(C)c1nccc(N2CCC(Oc3ccc([C@H](C)NC(=O)c4sc(NC(C)=O)nc4C)cc3)C2)n1 (some centres unmarked) [Example 2.8] | 245 nM |  |
| CCN(C)c1nccc(N2CCC(Oc3ccc([C@H](C)NC(=O)c4sc(NC(=O)COC)nc4C)cc3)C2)n1 (some centres unmarked) [Example 2.9] | 300 nM |  |
| CC(=O)Nc1nc(C)c(C(=O)N[C@@H](C)c2ccc(OC3CCN(c4ccnc(N(C)CC(F)F)n4)C3)cc2)s1 (some centres unmarked) [Example 2.10] | 115 nM |  |
| COCC(=O)Nc1nc(C)c(C(=O)N[C@@H](C)c2ccc(OC3CCN(c4ccnc(N(C)CC(F)F)n4)C3)cc2)s1 (some centres unmarked) [Example 2.11] | 115 nM |  |
| Cc1oncc1C(=O)N[C@@H](C)c1ccc(OC2CCN(c3ccnc(N(C)CC(F)F)n3)C2)cc1 (some centres unmarked) [Example 2.12] | 90 nM |  |

| SMILES | IC50 [1] | IC50 |
| --- | --- | --- |
| CCC(=O)N[C@@H](C)c1ccc(OC2CCN(c3ccnc(N(C)CC)n3)C2)cc1 (some centres unmarked) [Example 2.13] | 85 nM |  |
| CCN(C)c1nccc(N2CCC(Oc3ccc([C@H](C)NC(=O)C4CC4)cc3)C2)n1 (some centres unmarked) [Example 2.14] | 63 nM |  |
| C[C@H](NC(=O)c1cn[nH]c1)c1ccc(OC2CCN(c3ccnc(N(C)CC(F)F)n3)C2)cc1 (some centres unmarked) [Example 2.15] | 70 nM |  |
| CCC(=O)N[C@@H](C)c1ccc(OC2CCN(c3ccnc(N(C)CC(F)F)n3)C2)cc1 (some centres unmarked) [Example 2.16] | 45 nM |  |
| CCN(C)c1nccc(N2CCC(Oc3ccc([C@H](C)NC(=O)c4cn[nH]c4)cc3)C2)n1 (some centres unmarked) [Example 2.17] | 118 nM |  |
| CCN(C)c1nccc(N2CCC(Oc3ccc([C@H](C)NC(=O)c4cnoc4C)cc3)C2)n1 (some centres unmarked) [Example 2.18] | 130 nM |  |
| CC(=O)Nc1nc(C)c(C(=O)N[C@@H](C)c2ccc(OC3CCN(c4ncnc(OCC5CC5)c4F)C3)cc2)s1 (some centres unmarked) [Example 2.19] | 39 nM |  |
| C[C@H](NC(=O)c1cn[nH]c1)c1ccc(OC2CCN(c3ncnc(OCC4CC4)c3F)C2)cc1 (some centres unmarked) [Example 2.20] | 53 nM |  |
| C[C@H](NC(=O)c1cnco1)c1ccc(OC2CCN(c3ncnc(OCC4CC4)c3F)C2)cc1 (some centres unmarked) [Example 2.21] | 87 nM |  |
| Cc1oncc1C(=O)N[C@@H](C)c1ccc(OC2CCN(c3ncnc(OCC4CC4)c3F)C2)cc1 (some centres unmarked) [Example 2.22] | 48 nM |  |
| CCC(=O)N[C@@H](C)c1ccc(OC2CCN(c3ncnc(OCC4CC4)c3F)C2)cc1 (some centres unmarked) [Example 2.23] | 144 nM |  |
| COc1c(OCC2CC2)ncnc1N1CC[C@@H](Oc2ccc([C@H](C)NC(=O)c3cnco3)cc2)C1 [Example 2.27] | 103 nM |  |
| COc1c(OCC2CC2)ncnc1N1CC[C@@H](Oc2ccc([C@H](C)NC(=O)C3(C)CC3)cc2)C1 [Example 2.29] | 204 nM |  |
| COc1c(OCC2CC2)ncnc1N1CC[C@@H](Oc2ccc([C@H](C)NC(=O)C3CC(F)C3)cc2)C1 (some centres unmarked) [Example 2.30] | 528 nM |  |
| COc1c(OCC2CC2)ncnc1N1CC[C@@H](Oc2ccc([C@H](C)NC(=O)c3oc(NC(C)=O)nc3C)cc2)C1 [Example 2.32] | 809 nM |  |
| COc1c(OCC2CC2)ncnc1N1CC[C@@H](Oc2ccc([C@H](C)NC(=O)c3coc(NC(C)=O)n3)cc2)C1 [Example 2.33] | 908 nM |  |
